Experimental data published in paper PMC3608651, “A Broad Profile of Co-Dominant Epitopes Shapes the Peripheral Mycobacterium tuberculosis Specific CD8+ T-Cell Immune Response in South African Patients with Active Tuberculosis” (PLoS ONE, 2013).
Like-named read-outs stand apart in the source and are kept apart here.

Legend:
Format in all cases: binding
[1] = target: T1, HLA-A*30:02 (Homo sapiens, UniProt P04439, D101N/D140H/D185E/E176R/F33S/G80R/H175R/K168Q/Q94H/R138E/R41S/V100E)
[2] = target: T1, HLA-A*30:02; conditions: time points 0-8 h
[3] = target: T1, HLA-A*30:02; conditions: duplicated experiments, positive binder >40%
[4] = target: HLA-A*30:01 (Homo sapiens, UniProt P04439, D140H/D185E/E176W/F33S/G80R/H175R/K168Q/R138E/R41S); conditions: duplicated experiments, positive binder >40%
[5] = target: HLA-A*02:01 (Homo sapiens, UniProt P04439, D140Y/D185E/D98H/E176V/E277Q/G131W/G231S/I119V/I121R/I166T/I218V/L300P/L318F/N151K/N90K/P208A/P217A/Q86G/Q94H/R138H/R169H/T345S); conditions: plate-bound monomer 0.5 µg/ml, duplicated experiments, positive binder >40%
[6] = target: HLA-A*24:02 (Homo sapiens, UniProt P04439, D101N/D140Y/D185E/E176V/E190D/F33S/G103R/G107R/I119L/I121M/I306V/K335N/L105A/L180Q/L300P/N151K/N90K/Q86E/Q94H/R106L/R138H/R89G/T104I/T345S/V100E/W191G/Y123F)
[7] = target: HLA-B*58:01 (Homo sapiens, UniProt P01889, A329T/C349S/D201E/D98Y/E176V/E187L/E204Q/E69T/G107R/I218V/I90N/K202T/L105A/L119I/N104I/N87E/Q89R/Q94S/R106L/R155S/R180L/R86G/S101N/S121R/S35A/S48A/T118I/V127L/V306I/V36M/Y140S/Y91M); conditions: duplicated experiments, positive binder >40%
[8] = target: HLA-A*68:01 (Homo sapiens, UniProt P04439, A269V/D185E/E176V/E277Q/E87N/F33Y/G231S/I121M/I166T/I218V/L180W/L300P/L318F/N151K/P208A/P217A/Q86R/R169H/T345S); conditions: duplicated experiments, positive binder >40%
[9] = target: HLA-C*07:01 (Homo sapiens, UniProt P10321, K90N/S123Y); conditions: duplicated experiments, positive binder >40%
[10] = target: HLA-B*07:02 (Homo sapiens, UniProt P01889); conditions: percent relative the binding of positive control peptide […]; duplicated experiments; positive binder >40%
[11] = percent relative the binding of positive control peptide […]
[12] = percent relative the binding of positive control peptide […], duplicated experiments, positive binder >40%

Row | Sequence | Aff A*30:02 (ED50) [1] | O-rate A*30:02 (t1/2) [2] | Bind A*30:02 [3, 11] | Bind A*30:01 [4, 11] | Bind A*02:01 [5, 11] | Bind A*24:02 [6, 12] | Bind A*02:01 ([5]; percent relative the binding of positive control peptide FLPSDFFPSV) | Bind B*58:01 ([7]; percent relative the binding of positive control peptide IAMESIVIW) | Bind A*68:01 ([8]; percent relative the binding of positive control peptide KTGGPIYKR) | Bind C*07:01 ([9]; percent relative the binding of positive control peptide KYFDEHYEY) | Bind B*07:02 [10] | Bind A*30:02 ([3]; percent relative the binding of positive control peptide KIQNFRVYY) | Bind A*30:01 ([4]; percent relative the binding of positive control peptide KTKDIVNGL) | Bind A*24:02 ([6]; percent relative the binding of positive control peptide RYLKDQQLL, duplicated experiments, positive binder >40%) | Bind B*58:01 [7, 11] | Bind A*68:01 [8, 11] | Bind C*07:01 [9, 11] | Bind A*24:02 [6]
1 | DHAGDMAGY [Rv0288_13–21m1] | 10 nM | 18 min | 141% |  |  |  |  |  |  |  |  |  |  |  |  |  |  | 
2 | LVRAYHSMS [Rv0288_65–73m1] | 10 nM | 54 min | 30% | 7% |  |  |  |  |  |  |  |  |  |  |  |  |  | 
3 | AYHSMSSTH [Rv0288_68–76m1] | 200 nM | 30 min | 70% |  |  |  |  |  |  |  |  |  |  |  |  |  |  | 
4 | TMLGHAGDM [Rv0288_10–18m1] | 5000 nM | 36 min | 99% |  | 10% | 4% |  |  |  |  |  |  |  |  |  |  |  | 
5 | AIQGNVTSI [Rv3875_17-25] |  |  |  |  |  |  | 45% | 21% | 29% | 14% | 4% | 49% | 0% | 9% |  |  |  | 
6 | LTSELPQW L |  |  | 19% | 0% | 56% | 9% |  |  |  |  | 7% |  |  |  | 34% | 0% | 2% | 
7 | T RLW V Y CG N |  |  | 33% | 45% | 0% | 0% |  |  |  |  | 0% |  |  |  | 0% | 5% | 15% | 
8 | SALLDPSQG |  |  | 62% | 12% | 0% | 0% |  |  |  |  | 3% |  |  |  | 8% | 0% | 9% | 
9 | DAYNAAGGH |  |  | 18% | 8% | 4% | 14% |  |  |  |  | 12% |  |  |  | 29% | 64% | 16% | 
10 | KPTGSAAIG |  |  | 0% | 0% | 0% | 0% |  |  |  |  | 51% |  |  |  | 0% | 0% | 0% | 
11 | VYLLDGLRA |  |  | 98% | 0% | 86% | 87% |  |  |  |  | 0% |  |  |  | 0% | 13% | 9% | 
12 | QQIPKLVAN |  |  | 60% | 10% | 36% | 0% |  |  |  |  | 2% |  |  |  | 16% | 2% | 15% | 
13 | GSSAMILAA |  |  | 0% | 0% | 66% | 0% |  |  |  |  | 5% |  |  |  | 29% | 4% | 8% | 
14 | PVGGQSSFY |  |  | 82% | 0% | 0% | 0% |  |  |  |  | 0% |  |  |  | 0% | 0% | 0% | 
15 | GSAAIGLSM |  |  | 9% | 0% | 31% | 7% |  |  |  |  | 38% |  |  |  | 38% | 5% | 66% | 
16 | VMPVGGQSS |  |  | 12% | 0% | 60% | 0% |  |  |  |  | 0% |  |  |  | 0% | 0% | 0% | 
17 | GGANIPAEF |  |  | 70% | 0% | 4% | 0% |  |  |  |  | 0% |  |  |  | 57% | 0% | 5% | 
18 | FLTSELPQW |  |  | 3% | 0% | 75% | 117% |  |  |  |  | 8% |  |  |  | 71% | 5% | 0% | 
19 | LAMGDAGGY |  |  | 74% | 0% | 10% | 0% |  |  |  |  | 2% |  |  |  | 39% | 56% | 0% | 
20 | GGNNSPAVY |  |  | 90% | 0% | 0% | 0% |  |  |  |  | 0% |  |  |  | 0% | 3% | 45% | 
21 | AVKPTGSAA |  |  | 7% | 0% | 10% |  |  |  |  |  | 82% |  |  |  | 0% | 0% | 0% | 0
22 | FIYAGSLSA |  |  | 21% | 0% | 79% | 11% |  |  |  |  | 70% |  |  |  | 2% | 38% | 35% | 
